Like-named read-outs stand apart in the source and are kept apart here.
Assays:
vanilloid receptor (VR1) [1] = biological target: T1, vanilloid receptor (VR1) (Homo sapiens, UniProt Q8NER1); assay: FLIPR Ca2+ influx assay on CHO K1 cells transfected with the VR1 gene (pharmacological method II); assay type: cell-based; conditions: CHO-K1; @ 0.1 μM; read-out: inhibition in percent, Ki (human) Cap.
T1 construct: expressed in transfected cells; host or cells: CHO K1 cells (ECACC), stably transfected

[2] = biological target: T2, vanilloid receptor 1 (VR1/TRPV1) of the rat species (Rattus norvegicus, UniProt O35433); assay: FLIPR Ca2+ influx assay on rat dorsal root ganglia cells (pharmacological method I); assay type: cell-based; conditions: for Ki: table 4, capsaicin
T2 construct: The spinal column is removed from decapitated rats; from tissue; host or cells: primary cells dissociated from rat dorsal root ganglia
Summary of the method: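 Primary rat dorsal root ganglion cells loaded with 2 μM Fluo-4, Ca2+ influx read on FLIPR as peak fluorescence. Triplicates, at least 3 independent experiments.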

vanilloid receptor (VR1) [3] = biological target: T1, vanilloid receptor (VR1); assay: FLIPR Ca2+ influx assay on CHO K1 cells transfected with the VR1 gene (pharmacological method II); assay type: cell-based; conditions: table 4; capsaicin; read-out: Ki (human) Cap.
VR1/TRPV1 receptor = VR1/TRPV1 receptor (Homo sapiens, UniProt Q8NER1); assay: IC50 (human) after pH stimulus; assay type: cell-based; conditions: table 4
[4] = test system: capsaicin induced hypothermie; assay: Hypothermie assay in the mouse (capsaicin induced hypothermie); assay type: in vivo; conditions: mouse, read-out: inhibition hypothermie (n = 5); for inhibition in vivo at 0.3 mg/kg: 0.3 mg/kg body weight po
[5] = test system: formaldehyde induced nociceptive behaviour; assay: Formaldehyde test in mice, second (late) phase; assay type: in vivo, mouse; conditions: mouse, read-out: inhibition formaldehyde test (n = 10); for inhibition in vivo at 0.3 mg/kg: 0.3 mg/kg body weight po

VR1/TRPV1 receptor, sequence (Q8NER1 whole entry): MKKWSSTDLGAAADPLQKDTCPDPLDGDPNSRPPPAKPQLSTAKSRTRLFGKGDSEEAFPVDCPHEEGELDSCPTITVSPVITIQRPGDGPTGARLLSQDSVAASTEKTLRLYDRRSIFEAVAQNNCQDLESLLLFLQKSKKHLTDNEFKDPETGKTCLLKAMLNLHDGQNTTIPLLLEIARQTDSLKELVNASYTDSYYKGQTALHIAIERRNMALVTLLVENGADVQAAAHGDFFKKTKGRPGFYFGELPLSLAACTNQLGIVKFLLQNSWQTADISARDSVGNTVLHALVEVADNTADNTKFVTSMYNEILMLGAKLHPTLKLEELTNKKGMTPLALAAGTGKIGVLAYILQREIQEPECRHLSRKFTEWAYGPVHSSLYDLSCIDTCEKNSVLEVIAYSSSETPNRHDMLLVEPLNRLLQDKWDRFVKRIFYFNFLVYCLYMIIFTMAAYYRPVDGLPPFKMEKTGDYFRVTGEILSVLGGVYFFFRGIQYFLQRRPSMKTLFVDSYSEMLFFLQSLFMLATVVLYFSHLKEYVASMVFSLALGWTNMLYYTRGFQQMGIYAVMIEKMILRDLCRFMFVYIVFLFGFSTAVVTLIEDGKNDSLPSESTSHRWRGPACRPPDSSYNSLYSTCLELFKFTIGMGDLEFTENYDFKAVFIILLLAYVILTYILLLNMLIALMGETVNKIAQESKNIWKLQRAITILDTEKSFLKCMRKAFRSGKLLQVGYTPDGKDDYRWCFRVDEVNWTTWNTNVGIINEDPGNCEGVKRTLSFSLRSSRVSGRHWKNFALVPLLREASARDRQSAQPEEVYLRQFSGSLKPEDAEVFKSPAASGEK
T1 sequence (Q8NER1 whole entry): as above
T2 sequence (O35433 whole entry): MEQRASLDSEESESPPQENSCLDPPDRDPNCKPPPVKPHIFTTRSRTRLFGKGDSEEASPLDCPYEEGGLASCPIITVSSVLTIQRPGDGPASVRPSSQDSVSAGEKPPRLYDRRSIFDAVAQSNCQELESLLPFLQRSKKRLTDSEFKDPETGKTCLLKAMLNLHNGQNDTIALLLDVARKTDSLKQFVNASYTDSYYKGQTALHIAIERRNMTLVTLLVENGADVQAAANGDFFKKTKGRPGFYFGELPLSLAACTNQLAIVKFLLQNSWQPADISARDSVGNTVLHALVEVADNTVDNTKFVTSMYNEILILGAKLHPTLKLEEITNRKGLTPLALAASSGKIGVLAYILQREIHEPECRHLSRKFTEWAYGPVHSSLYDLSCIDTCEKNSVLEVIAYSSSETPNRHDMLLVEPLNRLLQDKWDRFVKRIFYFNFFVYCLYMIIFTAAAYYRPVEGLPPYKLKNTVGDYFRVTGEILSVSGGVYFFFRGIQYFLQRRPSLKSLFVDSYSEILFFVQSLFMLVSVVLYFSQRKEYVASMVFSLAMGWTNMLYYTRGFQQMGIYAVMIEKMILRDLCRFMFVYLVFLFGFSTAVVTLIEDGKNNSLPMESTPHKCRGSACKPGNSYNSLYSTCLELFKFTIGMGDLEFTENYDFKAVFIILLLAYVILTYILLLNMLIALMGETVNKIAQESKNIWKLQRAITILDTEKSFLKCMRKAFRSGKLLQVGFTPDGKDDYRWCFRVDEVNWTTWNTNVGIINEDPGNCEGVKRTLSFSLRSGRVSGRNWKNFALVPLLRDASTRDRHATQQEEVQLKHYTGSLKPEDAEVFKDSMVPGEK

Row | Compound | inhibition at 0.1 µM (vanilloid receptor (VR1) [1]) | Ki ([2]; read-out: Ki (rat) Cap.) | Ki (vanilloid receptor (VR1) [3]) | IC50 (VR1/TRPV1 receptor) | inhibition in vivo at 0.3 mg/kg [4] | inhibition in vivo at 0.3 mg/kg [5] | inhibition in vivo at 0.1 mg/kg ([5]; 0.1 mg/kg body weight po) | Ki ([2]; Ki (rat) Cap.) | inhibition at 1 µM ([2]; read-out: inhibition in percent, Ki (rat) Cap.) | inhibition in vivo at 0.1 mg/kg ([4]; 0.1 mg/kg body weight po)
1 | CC(C(=O)NCc1c(CO)cc(C(C)(C)C)nc1OCc1ccccc1)c1ccc(NS(C)(=O)=O)c(F)c1 (stereo not drawn) [Compound 223] | 4% | – | – | – | – | – | – | – | – | –
2 | Cc1cc(C(C)C(=O)NCc2ccc(C(F)(F)F)nc2N2CCCCC2)ccc1NS(C)(=O)=O (stereo not drawn) [Example 127, 2-(4-methylsulfonamido-3-methyl-phenyl)-N-(6′-trifluoromethyl-3,4,5,6-tetrahydro-2H-[1,2′]bipyridinyl-3′-ylmethyl)-propionamide] | – | 0.6 nM | 0.5 nM | 15.4 nM | 6% | 22% | – | – | – | –
3 | CC(C(=S)NCc1ccc(C(F)(F)F)nc1N1CCCC1)c1ccc(NS(C)(=O)=O)c(F)c1 (stereo not drawn) [Example 129, 2-(3-fluoro-4-methylsulfonamido-phenyl)-N-(2-pyrrolidin-1-yl-6-trifluoromethyl-pyridin-3-ylmethyl)-thiopropionamide] | – | 1.6 nM | 1.8 nM | 77.2 nM | 10% | 5% | – | – | – | –
4 | CC(C(=S)NCc1ccc(C(F)(F)F)nc1-c1ccc(F)cc1)c1ccc(NS(C)(=O)=O)c(F)c1 (stereo not drawn) [Example 130, 2-(3-fluoro-4-methylsulfonamido-phenyl)-N-[2-(4-fluoro-phenyl)-6-trifluoromethyl-pyridin-3-ylmethyl]-thiopropionamide] | – | 4.5 nM | 2.1 nM | 34.3 nM | 58% | 41% | – | – | – | –
5 | CC(C(=O)NCc1ccc(C(F)(F)F)nc1-c1cccc(F)c1)c1ccc(NS(C)(=O)=O)c(F)c1 (stereo not drawn) [Example 148, 2-(3-fluoro-4-methylsulfonamido-phenyl)-N-[2-(3-fluoro-phenyl)-6-trifluoromethyl-pyridin-3-ylmethyl]-propionamide] | – | 1.1 nM | 1.3 nM | 63.6 nM | 45% | 44% | – | – | – | –
6 | COC1CCN(c2nc(C(F)(F)F)ccc2CNC(=O)C(C)c2ccc(NS(C)(=O)=O)c(F)c2)CC1 (stereo not drawn) [Example 159, 2-(3-fluoro-4-methylsulfonamido-phenyl)-N-(4-methoxy-6′-trifluoromethyl-3,4,5,6-tetrahydro-2H-[1,2′]bipyridinyl-3′-ylmethyl)-propionamide] | – | 21.4 nM | 2.4 nM | 280 nM | 28% | 10% | – | – | – | –
7 | CCCCOC1CCN(c2nc(C(F)(F)F)ccc2CNC(=O)C(C)c2ccc(NS(C)(=O)=O)c(F)c2)CC1 (stereo not drawn) [Example 160, N-(4-butoxy-6′-trifluoromethyl-3,4,5,6-tetrahydro-2H-[1,2′]bipyridinyl-3′-ylmethyl)-2-(3-fluoro-4-methylsulfonamido-phenyl)-propionamide] | – | 3 nM | 3.5 nM | 28.2 nM | 28% | 10% | – | – | – | –
8 | CC(C(=O)NCc1ccc(C(F)(F)Cl)nc1OC1CCCC1)c1ccc(NS(C)(=O)=O)c(F)c1 (stereo not drawn) [Example 166, N-[6-(chloro-difluoro-methyl)-2-cyclopentyloxy-pyridin-3-ylmethyl]-2-(3-fluoro-4-methylsulfonamido-phenyl)-propionamide] | – | 1.1 nM | 0.5 nM | 18.5 nM | 28% | 48% | – | – | – | –
9 | CCCCN(C)c1nc(C(F)(F)F)ccc1CNC(=O)C(C)c1ccc(NS(C)(=O)=O)c(F)c1 (stereo not drawn) [Example 167, N-[2-(butyl-methyl-amino)-6-trifluoromethyl-pyridin-3-ylmethyl]-2-(3-fluoro-4-methylsulfonamido-phenyl)-propionamide] | – | 2.8 nM | 0.8 nM | 21.3 nM | 19% | – | 62% | – | – | –
10 | CC(C(=O)NCc1ccc(C(F)(F)Cl)nc1OC1CCCCC1)c1ccc(NS(C)(=O)=O)c(F)c1 (stereo not drawn) [Example 168, N-[6-(chloro-difluoro-methyl)-2-cyclohexyloxy-pyridin-3-ylmethyl]-2-(3-fluoro-4-methylsulfonamido-phenyl)-propionamide] | – | 1.4 nM | 0.9 nM | 17.6 nM | 21% | 1% | – | – | – | –
11 | CCC1CCC(Oc2nc(C(F)(F)F)ccc2CNC(=O)C(C)c2ccc(NS(C)(=O)=O)c(F)c2)CC1 (stereo not drawn) [Example 171, N-[2-(4-ethyl-cyclohexyloxy)-6-trifluoromethyl-pyridin-3-ylmethyl]-2-(3-fluoro-4-methylsulfonamido-phenyl)-propionamide] | – | – | 4.8 nM | 125 nM | 32% | 45% | – | 2.4 nM | – | –
12 | CC(C(=O)NCc1ccc(C(F)(F)F)nc1NCc1ccc(Cl)cc1)c1ccc(NS(C)(=O)=O)c(F)c1 (stereo not drawn) [Example 173, N-[2-(4-chloro-benzylamino)-6-trifluoromethyl-pyridin-3-ylmethyl]-2-(3-fluoro-4-methylsulfonamido-phenyl)-propionamide] | – | 78.4 nM | 65.7 nM | 414 nM | 36% | 0% | – | – | – | –
13 | CC(C(=O)NCc1ccc(C(F)(F)F)cc1N1CCCCCC1)c1ccc(NS(C)(=O)=O)c(F)c1 (stereo not drawn) [Example 174, N-(2-azepan-1-yl-4-trifluoromethyl-benzyl)-2-(3-fluoro-4-methylsulfonamido-phenyl)-propionamide] | – | 1.4 nM | 1.6 nM | 64.5 nM | 39% | 5% | – | – | – | –
14 | CC(C(=O)NCc1ccc(C(F)(F)F)nc1OCc1ccncc1)c1ccc(NS(C)(=O)=O)c(F)c1 (stereo not drawn) [Example 177, 2-(3-fluoro-4-methylsulfonamido-phenyl)-N-[2-(pyridin-4-ylmethoxy)-6-trifluoromethyl-pyridin-3-ylmethyl]-propionamide] | – | – | 51 nM | 1290 nM | 14% | 31% | – | – | 34% | –
15 | CC(C(=O)NCc1ccc(C(F)(F)F)nc1N1CCN(c2ccc(F)cc2)CC1)c1ccc(NS(C)(=O)=O)c(F)c1 (stereo not drawn) [Example 179, 2-(3-fluoro-4-methylsulfonamido-phenyl)-N-{2-[4-(4-fluoro-phenyl)-piperazin-1-yl]-6-trifluoromethyl-pyridin-3-ylmethyl}-propionamide] | – | 1 nM | 1.1 nM | 23.1 nM | 57% | 5% | – | – | – | –
16 | CC(C(=O)NCc1ccc(C(F)(F)Cl)nc1OCc1ccccn1)c1ccc(NS(C)(=O)=O)c(F)c1 (stereo not drawn) [Example 182, N-[6-(chloro-difluoro-methyl)-2-(pyridin-2-ylmethoxy)-pyridin-3-ylmethyl]-2-(3-fluoro-4-methylsulfonamido-phenyl)-propionamide] | – | 7.3 nM | 4.2 nM | 637 nM | 45% | 1% | – | – | – | –
17 | CC(C(=O)NCc1ccc(C(F)(F)F)cc1N1CCCCCCC1)c1ccc(NS(C)(=O)=O)c(F)c1 (stereo not drawn) [Example 217, N-(2-azocan-1-yl-4-trifluoromethyl-benzyl)-2-(3-fluoro-4-methylsulfonamido-phenyl)-propionamide] | – | 1.1 nM | 2.8 nM | 36.5 nM | – | 9% | – | – | – | 40%

Source: patent US8710233B2 (Gruenenthal GmbH, priority 2005, dated 2014)
